# Measured values as given in the NIST ThermoML archive (doi:10.1016/j.jct.2015.04.028).
# ± gives the expanded uncertainty stated by the source.
# Settings: Gas, Vibrating wire viscometry
smiles,measurement,setting,value
[HH] [hydrogen],viscosity,"296.26 K, 102.8 kPa",0.0089 ± 0.00084 mPa·s
same,viscosity,"296.26 K, 305.3 kPa",0.00897 ± 0.00084 mPa·s
same,viscosity,"296.26 K, 501 kPa",0.009 ± 0.00084 mPa·s
same,viscosity,"296.26 K, 700.6 kPa",0.00902 ± 0.00084 mPa·s
same,viscosity,"322.56 K, 111 kPa",0.00941 ± 0.00085 mPa·s
same,viscosity,"322.56 K, 302.4 kPa",0.00946 ± 0.00085 mPa·s
same,viscosity,"322.56 K, 502 kPa",0.00949 ± 0.00085 mPa·s
same,viscosity,"322.56 K, 698 kPa",0.00951 ± 0.00085 mPa·s
same,viscosity,"373.12 K, 111.6 kPa",0.01041 ± 0.00086 mPa·s
same,viscosity,"373.12 K, 301.2 kPa",0.01047 ± 0.00086 mPa·s
same,viscosity,"373.12 K, 503.1 kPa",0.01048 ± 0.00086 mPa·s
same,viscosity,"373.12 K, 701.4 kPa",0.0105 ± 0.00086 mPa·s
same,viscosity,"472.13 K, 111.4 kPa",0.01209 ± 0.00087 mPa·s
same,viscosity,"472.13 K, 298.9 kPa",0.01214 ± 0.00087 mPa·s
same,viscosity,"472.13 K, 500.1 kPa",0.01215 ± 0.00087 mPa·s
same,viscosity,"472.13 K, 701.1 kPa",0.01216 ± 0.00087 mPa·s
same,viscosity,"573.48 K, 98.9 kPa",0.01416 ± 0.00088 mPa·s
same,viscosity,"573.48 K, 298.2 kPa",0.0142 ± 0.00088 mPa·s
same,viscosity,"573.48 K, 503 kPa",0.01427 ± 0.00089 mPa·s
same,viscosity,"573.48 K, 701.6 kPa",0.01425 ± 0.00088 mPa·s
N#N [nitrogen],viscosity,"296.26 K, 99.9 kPa",0.01766 ± 0.00091 mPa·s
same,viscosity,"296.26 K, 312.6 kPa",0.01773 ± 0.00091 mPa·s
same,viscosity,"297.05 K, 500.9 kPa",0.01783 ± 0.00091 mPa·s
same,viscosity,"297.05 K, 700.9 kPa",0.01789 ± 0.00091 mPa·s
same,viscosity,"322.56 K, 109.8 kPa",0.01884 ± 0.00092 mPa·s
same,viscosity,"322.56 K, 307.3 kPa",0.01892 ± 0.00092 mPa·s
same,viscosity,"322.56 K, 500.7 kPa",0.01899 ± 0.00092 mPa·s
same,viscosity,"322.56 K, 701.2 kPa",0.01904 ± 0.00092 mPa·s
same,viscosity,"373.12 K, 111.2 kPa",0.02104 ± 0.00094 mPa·s
same,viscosity,"373.12 K, 300.6 kPa",0.02109 ± 0.00094 mPa·s
same,viscosity,"373.12 K, 503.2 kPa",0.02119 ± 0.00094 mPa·s
same,viscosity,"373.12 K, 694.5 kPa",0.02121 ± 0.00094 mPa·s
same,viscosity,"472.1 K, 110.2 kPa",0.02498 ± 0.00097 mPa·s
same,viscosity,"472.1 K, 309.7 kPa",0.025 ± 0.00097 mPa·s
same,viscosity,"472.1 K, 505.8 kPa",0.02509 ± 0.00097 mPa·s
same,viscosity,"472.1 K, 703.4 kPa",0.02513 ± 0.00097 mPa·s
same,viscosity,"572.98 K, 111.7 kPa",0.02864 ± 0.001 mPa·s
same,viscosity,"572.98 K, 316.1 kPa",0.02867 ± 0.001 mPa·s
same,viscosity,"572.98 K, 502 kPa",0.02871 ± 0.001 mPa·s
same,viscosity,"572.98 K, 703.4 kPa",0.02868 ± 0.001 mPa·s
[He] [helium],viscosity,"296.26 K, 100.3 kPa",0.01964 ± 0.00093 mPa·s
same,viscosity,"296.26 K, 332.1 kPa",0.01983 ± 0.00093 mPa·s
same,viscosity,"296.26 K, 500.3 kPa",0.01979 ± 0.00093 mPa·s
same,viscosity,"296.26 K, 716 kPa",0.01982 ± 0.00093 mPa·s
same,viscosity,"322.56 K, 110.1 kPa",0.02084 ± 0.00094 mPa·s
same,viscosity,"322.56 K, 306.5 kPa",0.02096 ± 0.00094 mPa·s
same,viscosity,"322.56 K, 521.2 kPa",0.02101 ± 0.00094 mPa·s
same,viscosity,"322.56 K, 723 kPa",0.021 ± 0.00094 mPa·s
same,viscosity,"373.12 K, 111.6 kPa",0.02307 ± 0.00095 mPa·s
same,viscosity,"373.12 K, 307.1 kPa",0.02314 ± 0.00095 mPa·s
same,viscosity,"373.12 K, 504.2 kPa",0.02318 ± 0.00095 mPa·s
same,viscosity,"373.12 K, 698.5 kPa",0.02322 ± 0.00095 mPa·s
same,viscosity,"472.08 K, 111.5 kPa",0.02712 ± 0.00098 mPa·s
same,viscosity,"472.08 K, 313.7 kPa",0.02727 ± 0.00099 mPa·s
same,viscosity,"472.08 K, 504.9 kPa",0.02725 ± 0.00099 mPa·s
same,viscosity,"472.08 K, 717.7 kPa",0.02732 ± 0.00099 mPa·s
same,viscosity,"572.96 K, 111.1 kPa",0.03107 ± 0.001 mPa·s
same,viscosity,"572.96 K, 309.7 kPa",0.03119 ± 0.001 mPa·s
same,viscosity,"572.96 K, 514.3 kPa",0.03119 ± 0.001 mPa·s
same,viscosity,"572.96 K, 721.7 kPa",0.03123 ± 0.001 mPa·s
